The text below walks through data of publication PMC7961618, “Inhibitor Development against p7 Channel in Hepatitis C Virus” (Molecules, 2021).

SMILES strings stand for the structures. pKd: −log10 of the molar value. Read-outs that look alike come from different tables or passages of the source.

As a reminder, the pKd is the negative decadic logarithm of the Kd, by convention in mol/L. As a reminder, the CC50 is the concentration at which the toxic effect on the cells reaches its halfway point. The low end stands for greater toxicity to the cells, the high end for lower toxicity to the cells.

The target of one data set is p7 (5a) protein (Hepatitis C virus genotype 5a (Hepacivirus hominis), UniProt O39928, A759S/C749A/C774T/C791S/T748G). Nature of the data set: NMR titration (2D 1H-15N TROSY-HSQC chemical shift perturbation) for Kd. It counts as binding. Particulars: for pKd: read-out: Kd GT5a.
A further data set relates to HCV genotype 3. Further details: method as in PMID 27783808. As to conditions: cited from earlier work.
Another data set has as its system Huh7.5.1 cells. Briefly: CellTiter-Glo cell viability and cytotoxicity assay. As to conditions: 12 h incubation. Background: In ATP-based viability assays light output follows the ATP content of the culture.
Assay in data set [1]: as above
Method: (§1) (B) After incubation with each compound, the cell viability and cytotoxicity were detected by CellTiter-Glo® Luminescent Cell Viability Assay reagent (Promega GS7570, Madison, WI, USA). […] Data were presented as the percentage of mock treatment control. […] Two independent experiments were repeated showing similar results.
(§2) Cell viability and cytotoxicity were detected by CellTiter-Glo® Luminescent Cell Viability Assay reagent (Promega GS7570, Madison, WI, USA). Briefly, Huh7.5.1 cells were seeded at a density of 80,000 cells per well in 24-well microplates and allowed to attach and grow overnight. The next day, the cell-culture media with serially diluted compounds in 0.5% DMSO or mock were added to the cells. After 12 h of incubation, cells were collected and lysed for the cell cytotoxicity assay.
Particulars: human, Huh7.5.1 cells.

In data set [2] the test system is HCV (JFH1 strain with adaptive mutations). It counts as cell-based. Particulars: for viral production kinetics versus mock control: 20 μM, supernatant at 2, 6, 12 and 24 h post-incubation; for IC50 against HCV compared with Rim: Huh7.5.1 cells, JFH1, 12 h.
In the next data set the test system is hepatoma cell lines. Also noted: method as in PMID 18828153. As to conditions: cited from earlier work.
The next data set relates to HCV. Further details: method as in PMID 18828153. Particulars: cited from earlier work.
The mark [3] stands for this setting: apparent Kd from chemical shift changes of Val7 or Leu8, 0.1 mM 15N-p7 (5a) in 20 mM DPC, 30 °C.

p7 (5a) protein, sequence (O39928 748-810 T748G/C749A/A759S/C774T/C791S): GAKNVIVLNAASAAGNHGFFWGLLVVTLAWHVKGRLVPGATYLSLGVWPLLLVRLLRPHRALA
Method for Huh7.5.1 cells: as §1, §2

For `NC(CNC(=O)CCOCCOCCOCCOCCOCCOCCC(=O)NCC(N)C12CC3CC(CC(C3)C1)C2)C12CC3CC(CC(C3)C1)C2` (stereo not shown) [ARD83], the pKd on p7 (5a) protein (setting [3]) is 4.15.

In the case of `CCC(NC)C12CC3CC(CC(C3)C1)C2` (stereo not shown) [ARD2], at p7 (5a) protein (setting [3]), the pKd was 3.48.

Regarding `CNC(C(N)=O)C12CC3CC(CC(C3)C1)C2` (stereo not shown) [ARD8], the pKd at p7 (5a) protein (setting [3]) is 3.15.

Consider `NC(CNC(=O)CCOCCOCCOCCOCCOCCOCCOCCC(=O)NCC(N)C12CC3CC(CC(C3)C1)C2)C12CC3CC(CC(C3)C1)C2` (stereo not shown) [ARD84], for which, at p7 (5a) protein (setting [3]), the pKd is 4.24.

In the case of `OCC1(CNCc2cc(C3CC3)on2)C2CC3CC(C2)CC1C3` (stereo not shown) [ARD101], on p7 (5a) protein (setting [3]), the pKd was 3.98.

On to `Oc1ccc(CNC23CC4CC(CC(C4)C2)C3)c(O)c1` [ARD89], for which the pKd on p7 (5a) protein (setting [3]) is 3.95.

Consider `CNC(=O)C(NC)C12CC3CC(CC(C3)C1)C2` (stereo not shown) [ARD9], for which the negative logarithm of the Kd (pKd) at p7 (5a) protein (setting [3]) is 3.38.

In the case of `OCC1(CNCc2cc(-c3ccccc3)on2)C2CC3CC(C2)CC1C3` (stereo not shown) [ARD98], at p7 (5a) protein (setting [3]), the pKd is 3.99.

As to `NC12CC3CC(CC(C3)C1)C2` [Amantadine], the “inhibition of genotype 3” value in the data set with HCV genotype 3 is “could not inhibit genotype 3”.

As for `CCNC(C)C12CC3CC(CC(C3)C1)C2` (stereo not shown) [ARD1], the pKd on p7 (5a) protein (setting [3]) is 3.31.

In the case of `NC(CNC(=O)CCOCCOCCOCCC(=O)NCC(N)C12CC3CC(CC(C3)C1)C2)C12CC3CC(CC(C3)C1)C2` (stereo not shown) [ARD80], the pKd at p7 (5a) protein (setting [3]) was 3.99.

On to `Cc1ccc(CNCC2(CO)C3CC4CC(C3)CC2C4)cn1` (stereo not shown) [ARD100], for which, at p7 (5a) protein (setting [3]), the pKd is 3.97.

Regarding `CNC(CO)C12CC3CC(CC(C3)C1)C2` (stereo not shown) [ARD6], the pKd at p7 (5a) protein (setting [3]) is 3.46.

In the case of `CC1(NCc2nnc(-c3cc(O)cc(O)c3)[nH]2)C2CC3CC(C2)CC1C3` (stereo not shown) [ARD112], in the data set with Huh7.5.1 cells, the “cytotoxicity compared with Rim” value is given as “comparable to Rim”. In data set [1], this compound came in with a CC50 at 12 h above 100 µM. In data set [2], the “viral production kinetics versus mock control” value was “suppress the viral production” and the “IC50 against HCV compared with Rim” value is given as “about two-fold lower than that of Rim”. In addition, the pKd on p7 (5a) protein (setting [3]) was 5.30. The “binding strength relative to the best dimeric compound ARD87” value on p7 (5a) protein (from NMR Kd values, p7 (5a)) is recorded as ~ 10 fold.

With `CC(N)C12CC3CC(CC(C3)C1)C2` (stereo not shown) [Rimantadine, reference compound], the CC50 at 12 h in data set [1] is above 100 µM. In addition, the “viral production kinetics versus mock control” value in data set [2] was “suppress the viral production”. Also, the “cytotoxicity against hepatoma cell lines” value with hepatoma cell lines is listed as “no significant cytotoxicity”. Moreover, the negative logarithm of the Kd (pKd) at p7 (5a) protein was 4.01. The anti-HCV activity result in the data set with HCV was “moderate anti-HCV activity”.

In the case of `NC(CNC(=O)CCOCCOCCOCCOCCC(=O)NCC(N)C12CC3CC(CC(C3)C1)C2)C12CC3CC(CC(C3)C1)C2` (stereo not shown) [ARD81], the pKd at p7 (5a) protein (setting [3]) was 4.09.

For `NC(C(F)F)C12CC3CC(CC(C3)C1)C2` (stereo not shown) [ARD71], the negative logarithm of the Kd (pKd) at p7 (5a) protein (setting [3]) is 2.61.

On to `Cc1cc(CNCC2(CO)C3CC4CC(C3)CC2C4)ccn1` (stereo not shown) [ARD99], for which the pKd at p7 (5a) protein (setting [3]) was 3.07.

As to `NC(CNC(=O)CCOCCC(=O)NCC(N)C12CC3CC(CC(C3)C1)C2)C12CC3CC(CC(C3)C1)C2` (stereo not shown) [ARD87], the “cytotoxicity compared with Rim” value with Huh7.5.1 cells is listed as “significantly higher than Rim”. For the same compound, in data set [2], the “viral production kinetics versus mock control” value is recorded as “suppress the viral production” and the “IC50 against HCV compared with Rim” value was “about two-fold lower than that of Rim”. The pKd at p7 (5a) protein is 4.37.
